Here are results for three compounds from ChEMBL document CHEMBL5728229, “Halo-substituted piperidines as orexin receptor modulators” (2021).

The term IC50 denotes the midpoint of a concentration-inhibition curve.

The target of test [1] is T1, Orexin/Hypocretin receptor type 1 (Homo sapiens, UniProt O43613).
T1 sequence (O43613 whole entry): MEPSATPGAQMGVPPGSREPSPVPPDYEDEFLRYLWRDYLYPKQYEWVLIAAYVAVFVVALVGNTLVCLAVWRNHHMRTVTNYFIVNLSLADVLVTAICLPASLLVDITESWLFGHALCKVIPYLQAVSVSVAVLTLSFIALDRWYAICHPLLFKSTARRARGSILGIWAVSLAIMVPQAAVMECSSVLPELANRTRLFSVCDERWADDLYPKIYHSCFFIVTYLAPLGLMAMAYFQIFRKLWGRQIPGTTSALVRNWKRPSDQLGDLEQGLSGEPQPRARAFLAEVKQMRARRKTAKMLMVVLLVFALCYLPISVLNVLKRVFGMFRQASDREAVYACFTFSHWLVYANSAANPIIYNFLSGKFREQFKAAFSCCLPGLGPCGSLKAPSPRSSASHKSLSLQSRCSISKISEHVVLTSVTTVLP
Kind of test: (§1) Orexin Receptor Cell-Based Functional Assay: Measurement of [Ca2+]i using a FLIPR: CHO—OX1 or CHO—OX2 cells were seeded into black-walled clear-base 384-well plates (Corning, catalog #3712) at a density of 20,000 cells per well in F12-K medium supplemented with 10% FBS and then incubated in a 5% CO2, 37° C. incubator overnight to reach 90% confluency. The cells were incubated with equal volume of calcium 6 loading buffer (Molecular Devices, Inc.) containing 2.5 mM probenecid at 37° C. for 2 h, followed by test compounds (dose-range 0.1 nM-10 μM) for another 30 min. The plates were then placed into a FLIPR (Molecular Devices, Inc.) to monitor fluorescence (λ excitation 488 nm, λ emission 540 nm) before and after the addition of EC90 of [OX].

The target of test [2] is T2, Orexin receptor type 2 (Homo sapiens, UniProt O43614).
T2 sequence (O43614 whole entry): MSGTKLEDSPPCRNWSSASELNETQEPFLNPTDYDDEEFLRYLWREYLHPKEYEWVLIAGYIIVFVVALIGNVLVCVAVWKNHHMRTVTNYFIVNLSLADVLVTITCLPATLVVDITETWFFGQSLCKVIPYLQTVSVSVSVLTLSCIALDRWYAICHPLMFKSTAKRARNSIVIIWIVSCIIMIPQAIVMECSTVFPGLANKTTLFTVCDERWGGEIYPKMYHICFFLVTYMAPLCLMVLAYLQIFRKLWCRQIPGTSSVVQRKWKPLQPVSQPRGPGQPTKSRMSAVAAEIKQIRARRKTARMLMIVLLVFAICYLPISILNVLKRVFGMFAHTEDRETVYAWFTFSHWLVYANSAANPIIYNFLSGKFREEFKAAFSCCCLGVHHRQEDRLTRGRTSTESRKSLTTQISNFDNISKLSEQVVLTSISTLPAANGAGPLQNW
The test is described as §1.

Take `C[C@@H]1CC(F)(F)CN(C(=O)c2nn(C)cc2-c2ncc(F)cn2)[C@@H]1COc1cnc(C(F)(F)F)cn1`: the IC50 in test [1] worked out at 1000 nM.

For `C[C@@H]1CC(F)(F)CN(C(=O)c2nn(C)cc2-c2ncc(F)cn2)[C@@H]1COc1ncc(C(F)(F)F)cc1F`, the IC50 in test [1] is 1000 nM.

For the compound `C[C@@H]1CC(F)(F)CN(C(=O)c2nn(C)cc2-c2ccccc2)[C@@H]1COc1ccc(C(F)(F)F)cn1`, the figures for the IC50 in test [1] and in test [2] were 8 nM and more than 5000 nM, respectively.
